Earlier results, collected in patent publication US20250011247A1, “GYPSUM HARDENED PRODUCT” (KAO CORPORATION, priority 2022, published 2025).

Conditions: 1-octanol/water; measured value if any, otherwise C log P calculated by C LOG P v 4.01

## CCCCC=O [pentanal]
  log P: 1.31
